# Data reported in patent US9655877B2, “Therapeutic methods for treating inflammation and immune system disorders” (priority 2009, dated 2017).
# Tested on: NF-kB p65
# Experiment: Nuclear translocation of NF-kB p65 in LPS-stimulated BV-2 cells, Western blot
# Type: cell-based, murine
# Conditions: 50 μg/ml pretreatment 1 h, 100 ng/ml LPS 30 min
# Experimental: BV-2 cells (2×10^5 cells/ml) were pretreated with either 0.05% DMSO or 50 μg/ml senkyunolide A for 1 h, followed by treatment with 100 ng/ml LPS for another 30 min. (A) Cytoplasmic proteins were extracted and analyzed by Western Blot using antibodies specific for phospho-p38, phospho-JNK, phospho-ERK 1/2 and actin. (B) Nuclear proteins were extracted and analyzed by Western Blot against NF-kB p65 and lamin B antibodies. 10^5 cells/ml BV-2 cells were first pretreated with senkyunolide A for 1 h. After induction by 100 ng/ml LPS for 30 min, the culture medium was discarded. Cytoplasmic proteins and nuclear proteins were extracted separately by buffer A and buffer C as described in our previous report^28. The cell lysates were separated by 10% SDS-polyacrylamide gel electrophoresis and transferred to a nitrocellulose membrane (Schleicher & Schuell, Germany). The cell lysates were incubated with specific antibodies (phospho-MAP kinases, Actin, NF-kB p65 and Lamin B) overnight. After three washes, the membranes were incubated with the corresponding secondary antibodies. The bands were detected using the Enhanced Chemiluminescence System (GE Healthcare, Piscataway, N.J., USA) according to the manufacturer's instructions. The NF-kB pathway plays a key role in the transcriptional regulation of inflammatory mediators. […]
smiles,measurement,value
CCCC[C@H]1OC(=O)C2=C1CCC=C2 [senkyunolide A],effect on translocation of NF-kB p65 into the nucleus,did not exert an inhibitory effect
